Results: patent US20220411448A1, “CHROMENE-4-ONE DERIVATIVES AS BRAIN-DERIVED NEUROTROPHIC FACTOR (BDNF) MIMETICS” (FLORATEK PHARMA AG, priority 2019, published 2022)

What was measured:
[1] = system: human hepatocytes from pooled donor lot; test: Hepatic toxicity: cytotoxicity by LDH leakage; assay type: cell-based; details: 1 to 100 μM, 24 h exposure
Description: Cryopreserved human hepatocytes from pooled donor lot (Bioreclamation IVT) were seeded on collagen I coated 96-well plates (Corning Biocoat) at 0.55×10^5 cells per well in 120 μl InVitroGRO™ CP medium (BioIVT), including additives Torpedo Antibiotic mix (BioIVT). After cell attachment (4-6 hours post seeding) cell culture medium was replaced with fresh medium and incubated for 72 hours at 37° C. under 5% CO2. Thereafter, hepatocytes were exposed to test or control compounds in 100 μl of InVitroGRO™ HI medium, including additives Torpedo Antibiotic mix at concentrations presented below. Cytotoxicity and cell viability were evaluated based on LDH release in medium and ATP content in the cells after 24 hours exposure phase.
Cytotoxicity potency of test compounds SND118, SND121, SND122 and SND123 was assayed in human hepatocytes from pooled donor lot at three concentrations; 1, 10 and 100 μM. Cytotoxicity was assayed from medium samples after 24 h exposure period with test compounds by measuring membrane integrity (LDH leakage), coupled to fluorescent signal. In parallel, cell viability was assayed by the means of ATP content, indicating the metabolically competent cell activity. LDH and ATP assay kits were sourced from Promega. ATP content was measured based on luciferase catalysed reaction generating stable bioluminescent signal. […]

[2] = system: primary cultures of cerebral cortical astrocytes; test: Glucose uptake ([3H]2-deoxyglucose) in astrocyte cultures; assay type: cell-based, mouse; details: 10 μM, 30 minutes after application
Description: Primary cultures of cerebral cortical astrocytes were prepared from Swiss albino newborn mice (1-2 days old) as described [Pellerin L, Magistretti P J. Glutamate uptake into astrocytes stimulates aerobic glycolysis: a mechanism coupling neuronal activity to glucose utilization. Proc Natl Acad Sci USA. 1994 Oct. 25; 91(22):10625-9]. This procedure yields cultures that are >95% immunoreactive for glial fibrillary acidic protein.
Astrocytes are emerging as having significant roles in several homeostatic processes in the brain [Zuchero J B, Barres B A. Glia in mammalian development and disease. Development 2015 142: 3805-3809]. To evaluate the potential effects of Compound A (10 μM) on astrocyte metabolism, the uptake of glucose and lactate release were measured 30 minutes after application of compounds to the culture (FIGS. 2 and 3).
Glucose utilization by cells was measured using radioactive 2-deoxyglucose, a well-established marker of glucose utilization not metabolized within cells. […]
In order to quantify glucose utilization by cells in the presence of Compound A/SND118, radioactive 2-deoxyglucose, a well-established marker of glucose utilization not metabolized within cells, was used. The radioactivity count is thus proportional to the transport and phosphorylation of glucose that enters into the cells. […]

[3] = system: organotypic hippocampal brain slices with IAA lesion; test: Organotypic brain slices, iodoacetic acid injury: mitochondrial membrane potential (TMRM); assay type: cell-based, mouse; details: SND118 10 and 30 μM; SND124 30 μM; IAA 250 μM for 110 min
Description: Preparation of the organotypic brain slices were performed by decapitation of the P9/P10 mouse pups, removing skin and skull and immersing brains in slicing medium (Opti-MEM 1, […]). Brains were hemisected and hippocampi were isolated. Hippocampi were placed on the cutting disc of a McIlwain Tissue Chopper. […] hippocampal slices were chopped transversely. A number of 4 slices per hippocampus were placed on porous (0.4 μM) transparent membrane inserts (Millipore) and incubated for 1 h on ice in HBSS containing 10 mM glucose. Afterwards inserts were transferred to fresh 24-well plates containing 250-300 μl culture medium (50% MEM/EBSS, 25% horse serum, 25% CMF-HBSS, 25 mM glucose, 0.5% pen/strep). Slices were maintained at 37° C. and 5% CO2.
On DV15, brain slices were pretreated with SND derivatives test compounds and the reference 7,8DHF at various concentrations (between […]) for 30 min, followed by the addition of iodoacetic acid (IAA) at 250 μM for 110 min, when cell survival, MMP and toxicity were measured.
Cell survival was measured by the MTT assay. […] Fluorescence was measured with a plate-reader (Cytation 5) using wavelengths of excitation and emission of 548 and 574 nm, respectively (area scan). Values were calculated as percent of control values (vehicle control). Toxicity of the treatment was measured by LDH. […]

[4] = Metabolic stability in human liver microsomes; assay type: in vitro ADME; details: both sexes, pooled liver microsomes, pH 7.4, 0.5 mg/ml protein, read-out: T1/2 LM human
Description: Sample type: pooled liver or intestine microsomes; Species: CD1-mouse (male), human (mixed gender) Time points: 0, 10, 20, 40, 60 min cofactors, and negative control;
Protein content: 0.5 mg/ml: Replicates: 2 with cofactors, 1 without cofactors; Cofactors: NADPH (1 mM)+UDPGA (1 mM)+15 μg/ml alamethicin Buffer: 0.1 M phosphate buffer pH 7.4, 2 mM MgCl2; Spiking solvent: 50% DMSO ( 1/100 to incubation); Quenching solvent: 2-fold volume of 75% ACN, Control: midazolam disappearance rate
The study compounds were incubated with liver or intestine microsomes as specified above. The collected samples were stored at −20 C until thawed at room temperature, centrifuged and analyzed as presented below.
The samples were analysed by UPLC/HR-MS (with data dependent MS/MS mode) to monitor substrate depletion (and later optionally metabolite formation). The analytical method was optimised by using the parent compound for optimum chromatographic properties (peak shape and retention) and mass spectrometric ionisation. Disappearance rate of the study compound was estimated based on relative LC/MS peak areas (o min marked as 100%), and was used to calculate in vitro half-life and clearance (and in vivo extrapolation of hepatic clearance).

For `O=c1cc(-c2ccc(CCCC[P+](c3ccccc3)(c3ccccc3)c3ccccc3)cc2)oc2c(O)c(O)ccc12` [SND118, 4-[4-(7,8-dihydroxy-4-oxo-chromen-2-yl)phenyl]butyltriphenylphosphonium bromide], the “Cytotoxicity (LDH leakage)” value [1] was 7-10%, the “uptake of deoxyglucose (glucose uptake)” value [2] was “increased the uptake of deoxyglucose in the same range as glutamate control” and the “mitochondria function (MMP, TMRM) after IAA lesion” value [3] was “rescued mitochondria function”. For the same compound, the half-life at 1 μM [4] was 18 min.
